Data published in ChEMBL document CHEMBL1143993, “Synthesis and structure-activity relationships of a series of substituted 2-(1H-furo[2,3-g]indazol-1-yl)ethylamine derivatives as 5-HT2C receptor agonists” (Bioorg Med Chem, 2008).

What was measured:
[1] = molecular target: T1, 5-hydroxytryptamine receptor 2C (Homo sapiens, UniProt P28335); assay: Displacement of [3H]5-HT from human 5HT2C receptor expressed in CHO cells; format: cell-based
T1 sequence (P28335 whole entry): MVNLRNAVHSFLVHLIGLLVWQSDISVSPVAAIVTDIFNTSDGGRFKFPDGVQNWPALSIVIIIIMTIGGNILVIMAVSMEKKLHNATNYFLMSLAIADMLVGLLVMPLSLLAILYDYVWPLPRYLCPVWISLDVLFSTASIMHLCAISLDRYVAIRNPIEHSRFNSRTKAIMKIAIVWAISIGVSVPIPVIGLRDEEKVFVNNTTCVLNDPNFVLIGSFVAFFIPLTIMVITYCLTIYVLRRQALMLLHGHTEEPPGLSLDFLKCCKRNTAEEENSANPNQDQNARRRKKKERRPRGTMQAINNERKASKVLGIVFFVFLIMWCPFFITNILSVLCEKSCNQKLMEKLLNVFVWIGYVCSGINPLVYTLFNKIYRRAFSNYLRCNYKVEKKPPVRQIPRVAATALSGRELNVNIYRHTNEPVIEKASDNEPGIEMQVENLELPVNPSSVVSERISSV

[2] = molecular target: Serotonin 2 receptors; 5-HT2a & 5-HT2c (Homo sapiens) (UniProt P28223+P28335); assay: Selectivity for human 5HT2A to human 5HT2C
Serotonin 2 receptors; 5-HT2a & 5-HT2c (Homo sapiens), sequence (P28223 whole entry, looked up, one chain of several): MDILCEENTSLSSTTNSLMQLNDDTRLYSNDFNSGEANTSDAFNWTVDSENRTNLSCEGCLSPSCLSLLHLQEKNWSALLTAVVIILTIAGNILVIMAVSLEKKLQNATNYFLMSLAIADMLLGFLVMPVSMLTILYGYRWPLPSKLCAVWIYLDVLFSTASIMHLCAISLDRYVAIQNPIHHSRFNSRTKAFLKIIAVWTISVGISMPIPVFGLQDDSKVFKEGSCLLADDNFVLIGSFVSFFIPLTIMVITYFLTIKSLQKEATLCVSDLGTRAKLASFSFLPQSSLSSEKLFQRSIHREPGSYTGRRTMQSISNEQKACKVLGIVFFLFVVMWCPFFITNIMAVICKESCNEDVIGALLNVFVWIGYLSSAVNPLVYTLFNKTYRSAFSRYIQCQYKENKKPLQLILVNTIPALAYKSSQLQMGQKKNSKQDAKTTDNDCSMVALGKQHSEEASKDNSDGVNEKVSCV

[3] = molecular target: T2, 5-hydroxytryptamine receptor 2A (Homo sapiens, UniProt P28223); assay: Displacement of [3H]5-HT from human 5HT2A receptor expressed in CHO cells; format: cell-based
T2 sequence (P28223 whole entry): as the sequence (P28223 whole entry, looked up, one chain of several) above

[4] = test system: Rattus norvegicus; assay: Induction of penile erection in sc dosed rat; format: functional; conditions: read-out: MED
[5] = molecular target: T3, 5-hydroxytryptamine receptor 2B (Homo sapiens, UniProt P41595); assay: Intrinsic activity at human cloned 5HT2B receptor expressed in HEK293-EBNA cells assessed as maximal stimulation of 10 uM 5HT-induced myo-[3H]inositol hydrolysis; format: functional, cell-based
T3 sequence (P41595 whole entry): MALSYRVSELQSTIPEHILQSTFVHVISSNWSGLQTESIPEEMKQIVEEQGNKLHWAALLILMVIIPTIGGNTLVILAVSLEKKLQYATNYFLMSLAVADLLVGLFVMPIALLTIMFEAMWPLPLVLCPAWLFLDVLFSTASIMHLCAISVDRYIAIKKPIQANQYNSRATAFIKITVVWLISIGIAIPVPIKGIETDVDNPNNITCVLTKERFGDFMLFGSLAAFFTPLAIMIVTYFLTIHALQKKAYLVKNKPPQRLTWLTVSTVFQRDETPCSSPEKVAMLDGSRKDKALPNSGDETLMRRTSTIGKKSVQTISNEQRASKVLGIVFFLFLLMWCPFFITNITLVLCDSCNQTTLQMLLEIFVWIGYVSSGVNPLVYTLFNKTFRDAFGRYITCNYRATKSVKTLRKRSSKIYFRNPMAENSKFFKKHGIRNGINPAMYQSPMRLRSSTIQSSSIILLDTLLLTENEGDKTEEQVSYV

[6] = molecular target: T1, 5-hydroxytryptamine receptor 2C; assay: Agonist activity at human cloned 5HT2C receptor expressed in CHO cells assessed as myo-[3H]inositol hydrolysis; format: functional, cell-based
[7] = test system: Rattus norvegicus; assay: Induction of penile erection in po dosed rat; format: functional; conditions: read-out: MED
[8] = molecular target: T2, 5-hydroxytryptamine receptor 2A; assay: Intrinsic activity at human cloned 5HT2A receptor expressed in CHO cells assessed as maximal stimulation of 10 uM 5HT-induced myo-[3H]inositol hydrolysis; format: functional, cell-based
[9] = molecular target: T2, 5-hydroxytryptamine receptor 2A; assay: Agonist activity at human cloned 5HT2A receptor expressed in CHO cells assessed as myo-[3H]inositol hydrolysis; format: functional, cell-based
[10] = molecular target: T3, 5-hydroxytryptamine receptor 2B
Description: Agonist activity at human cloned 5HT2B receptor expressed in HEK293-EBNA cells assessed as myo-[3H]inositol hydrolysis

[11] = species: Homo sapiens; assay: Selectivity ratio of EC50 for human cloned 5HT2B receptor over EC50 for human cloned 5HT2C receptor
[12] = molecular target: T4, 5-hydroxytryptamine receptor 2C (Homo sapiens) (UniProt P28335); assay: Intrinsic activity at human cloned 5HT2C receptor expressed in CHO cells assessed as maximal stimulation of 10 uM 5HT-induced myo-[3H]inositol hydrolysis; format: functional, cell-based
T4 sequence (whole entry): T1 sequence (P28335 whole entry)

Structure (SMILES)	Ki [1] [nM]	Ratio Ki [2]	Ki [3] [nM]	other results
CCc1cc2c(ccc3c(CC)nn(C[C@H](C)N)c32)o1	2.7	19	51	
Cc1cc2c(ccc3cnn(C[C@H](C)N)c32)o1	0.2	4	0.78	
CCCc1nn(C[C@H](C)N)c2c1ccc1occc12	25	3	64	
COc1nn(C[C@H](C)N)c2c1ccc1occc12	0.51	17		minimal effective dose [4]: 0.1 mg/kg
CCc1nn(C[C@H](C)N)c2c1ccc1occc12	2.5	4	11	
CCc1cc2c(ccc3cnn(C[C@H](C)N)c32)o1	0.89	15	13	Emax [5]: 110%; EC50 [6]: 1 nM; minimal effective dose [7]: 0.3 mg/kg; Emax [8]: 97%; EC50 [9]: 93 nM; EC50 [10]: 3.2 nM; Ratio EC50 [11]: 3.2; Emax [12]: 76%; minimal effective dose [4]: 0.03 mg/kg
COc1ccc2cnn(C[C@H](C)N)c2c1	16	2	37	
C[C@H](N)Cn1ncc2cc(F)ccc21	43	2	89	
C[C@H](N)Cn1ncc2ccc3sccc3c21	1.4	5	6.7	
C[C@H](N)Cn1ncc2cc(Cl)c(Cl)cc21	7.5	1	11	
CC(C)c1cc2c(ccc3cnn(C[C@H](C)N)c32)o1	20	4	87	
C[C@H](N)Cn1ccc2cc(F)c(Cl)cc21	26	2	39	Emax [5]: 130%; EC50 [6]: 52 nM; Emax [8]: 91%; EC50 [9]: 400 nM; EC50 [10]: 2.4 nM; Ratio EC50 [11]: 0.05; Emax [12]: 88%; minimal effective dose [4]: 0.3 mg/kg
CCc1cc2c(ccc3c(OC)nn(C[C@H](C)N)c32)o1	12	3	38	
C[C@H](N)Cn1ncc2ccc(Cl)c(Cl)c21	4	2	9.1	
C[C@H](N)Cn1ncc2ccc(F)cc21	32	3	82	
CCc1cc2c(ccc3c(C)nn(C[C@H](C)N)c32)o1	5	9	46	
C[C@H](N)Cn1ncc2ccc3ocnc3c21	59	1	47	
Cc1nn(C[C@H](C)N)c2c1ccc1occc12	13	1	17	
C[C@H](N)Cn1ncc2ccc3occc3c21	0.2	4	0.78	
COc1ccc2cnn(C[C@H](C)N)c2c1Cl	140	9	1200	
